US10888561B2, “CGRP receptor antagonists” (Heptares Therapeutics Limited, priority 2015, dated 2021)

Columns and labels:
[1] = target: CGRP receptor (Homo sapiens (Human), UniProt O60894+Q16602); conditions: literature; cited from earlier work
[2] = Thermodynamic solubility profiling; type: physicochemical; conditions: PBS buffer pH 7.4, 24 h at rt
Protocol: Thermodynamic solubility profiling. A 50 mM DMSO stock solution of test compound was prepared, and from this, a working solution of 1 mM was prepared by dilution with DMSO. The UV absorbance of working solution was scanned from 220 nm to 1000 nm to identify the wavelength maxima of test compound. The 1 mM working solution was then serially diluted in DMSO to different concentrations to determine linearity/calibration curve. […] The resulting solution was then kept on a RotoSpin shaker at 50 rpm for 24 h at rt before the solution was filtered using 0.45 micron PVDF injector filters in order to remove the insoluble fraction of the compound. Subsequently, 150 uL of the filtrate is taken for quantification using a UV spectrophotometer, acquiring the optical density of standard solutions and test compound at the same wavelength maxima. From the optical density of test compound the thermodynamic solubility is calculated using the linearity/calibration curve and expressed as micromolar (μM). Solubility profiles of certain compounds of the invention are detailed in Table 7.

[3] = tested on: migraine; conditions: humans, at 24 h after intravenous infusion of a 2.5 mg dose; cited from earlier work

CGRP receptor, sequence (Q16602 23-461): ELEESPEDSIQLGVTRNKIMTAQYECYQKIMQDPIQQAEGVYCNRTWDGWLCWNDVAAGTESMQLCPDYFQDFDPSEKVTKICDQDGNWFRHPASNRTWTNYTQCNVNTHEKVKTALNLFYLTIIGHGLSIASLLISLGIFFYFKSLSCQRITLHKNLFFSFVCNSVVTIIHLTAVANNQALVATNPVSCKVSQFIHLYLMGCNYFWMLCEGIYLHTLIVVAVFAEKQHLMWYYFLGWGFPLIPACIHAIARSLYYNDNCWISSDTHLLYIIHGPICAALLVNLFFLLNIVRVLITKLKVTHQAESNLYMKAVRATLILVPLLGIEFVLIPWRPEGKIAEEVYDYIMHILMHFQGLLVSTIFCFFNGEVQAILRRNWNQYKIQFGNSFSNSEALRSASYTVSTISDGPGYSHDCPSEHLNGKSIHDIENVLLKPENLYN
CGRP receptor, sequence (O60894 27-148): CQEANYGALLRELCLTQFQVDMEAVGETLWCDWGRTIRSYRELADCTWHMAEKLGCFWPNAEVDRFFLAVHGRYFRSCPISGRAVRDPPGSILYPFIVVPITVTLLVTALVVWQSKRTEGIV

Thermodynamic solubility (μM) pH 7.4 [2] [μM]	SMILES	kinetics at the CGRP receptor [1]	headache-free rate [3] [%]
–	O=C(CN1C(=O)C2(CCCC2)NC[C@H]1c1cc(F)cc(F)c1)Nc1ccc2c(c1)C[C@@]1(C2)C(=O)Nc2ncccc21 [MK-3207]	relatively slow dissociation	–
1205	Cc1cc(C[C@@H](NC(=O)N2CCC(N3Cc4ccccc4NC3=O)CC2)C(=O)N[C@@H](CC2CCNCC2)C(=O)N2CCN(c3ccncc3)CC2)cc2cn[nH]c12 [Example 10, N-[(2R)-3-(7-methyl-1H-indazol-5-yl)-1-oxo-1-({(2S) (2S)-1-oxo-3-(piperidin-4-yl)-1-[4-(pyridin-4-yl)piperazin-1-yl]propan-2-yl}amino)propan-2-yl]-4-(2-oxo-1,4-dihydroquinazolin-3(2H)-yl)piperidine-1-carboxamide]	–	–
–	NCCCC[C@H](NC(=O)[C@@H](Cc1cc(Br)c(O)c(Br)c1)NC(=O)N1CCC(N2Cc3ccccc3NC2=O)CC1)C(=O)N1CCN(c2ccncc2)CC1 [olcegepant]	slow kinetics	47
